# Tested on: Mycoplasma gallisepticum S6 (standard strain)
# Test: Mycoplasma gallisepticum air-sac infection method in chicken, strain S6
# Assay type: in vivo, Mycoplasma gallisepticum; SPF chicken (white leghorn)
# Summary of the method: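 Right air sac of 9-day-old SPF white leghorn chickens (water/feed withheld 1 day) inoculated with 24-48 h culture diluted ~100×; compound given once orally by cannula right after infection. At day 5, air-sac lesions scored 0-3 (index = right + 2×left), and organisms isolated from both air sacs and trachea.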
# [1] = 50 mg/kg × once oral, 5 mg/ml sol. b, inoculum 6.3 × 10^4
# [2] = 100 mg/kg × once oral, 10 mg/ml sol. b, inoculum 1.2 × 10^6
# [3] = 100 mg/kg × once oral, 10 mg/ml sol. b, inoculum 6.3 × 10^4
# [4] = 200 mg/kg × once oral, 20 mg/ml sol. a, inoculum 3.1 × 10^5
# [5] = 200 mg/kg × once oral, 20 mg/ml sol. c, inoculum 3.1 × 10^5
smiles,measurement,setting,value
"O=c1cccccc1O [Tropolone, tropolone]","Change of air-sac, left: + (chickens)",[1],0
same,"Change of air-sac, left: ++ (chickens)",[1],0
same,"Change of air-sac, left: +++ (chickens)",[1],0
same,"Change of air-sac, left: - (chickens)",[1],5
same,"Change of air-sac, right: + (chickens)",[1],2
same,"Change of air-sac, right: ++ (chickens)",[1],0
same,"Change of air-sac, right: +++ (chickens)",[1],0
same,"Change of air-sac, right: - (chickens)",[1],3
same,"Isolation, L (left air-sac)",[1],0
same,"Isolation, R (right air-sac)",[1],2
same,Mycoplasma Isolated Chickens,[1],2
same,Index of Disease,"50 mg/kg × once oral, 5 mg/ml sol. b, inoculum 6.3 × 10^4, range 0-9.0",0.4
same,Index of Isolation,"50 mg/kg × once oral, 5 mg/ml sol. b, inoculum 6.3 × 10^4, trachea ND, range 0-6.0",0.4
same,"Change of air-sac, left: + (chickens)",[2],0
same,"Change of air-sac, left: ++ (chickens)",[2],0
same,"Change of air-sac, left: +++ (chickens)",[2],0
same,"Change of air-sac, left: - (chickens)",[2],8
same,"Change of air-sac, right: + (chickens)",[2],0
same,"Change of air-sac, right: ++ (chickens)",[2],0
same,"Change of air-sac, right: +++ (chickens)",[2],0
same,"Change of air-sac, right: - (chickens)",[2],8
same,"Isolation, L (left air-sac)",[2],0
same,"Isolation, R (right air-sac)",[2],0
same,"Isolation, T (trachea)",[2],0
same,Mycoplasma Isolated Chickens,[2],0
same,Index of Isolation,"100 mg/kg × once oral, 10 mg/ml sol. b, inoculum 1.2 × 10^6, range 0-6.0",0
same,Index of Disease,"100 mg/kg × once oral, 10 mg/ml sol. b, inoculum 1.2 × 10^6, range 0-9.0",0
same,"Change of air-sac, left: + (chickens)",[3],0
same,"Change of air-sac, left: ++ (chickens)",[3],0
same,"Change of air-sac, left: +++ (chickens)",[3],0
same,"Change of air-sac, left: - (chickens)",[3],5
same,"Change of air-sac, right: + (chickens)",[3],1
same,"Change of air-sac, right: ++ (chickens)",[3],0
same,"Change of air-sac, right: +++ (chickens)",[3],0
same,"Change of air-sac, right: - (chickens)",[3],4
same,"Isolation, L (left air-sac)",[3],0
same,"Isolation, R (right air-sac)",[3],0
same,Mycoplasma Isolated Chickens,[3],0
same,Index of Disease,"100 mg/kg × once oral, 10 mg/ml sol. b, inoculum 6.3 × 10^4, range 0-9.0",0.2
same,Index of Isolation,"100 mg/kg × once oral, 10 mg/ml sol. b, inoculum 6.3 × 10^4, trachea ND, range 0-6.0",0
same,"Change of air-sac, left: + (chickens)",[4],0
same,"Change of air-sac, left: ++ (chickens)",[4],0
same,"Change of air-sac, left: +++ (chickens)",[4],0
same,"Change of air-sac, left: - (chickens)",[4],5
same,"Change of air-sac, right: + (chickens)",[4],0
same,"Change of air-sac, right: ++ (chickens)",[4],0
same,"Change of air-sac, right: +++ (chickens)",[4],0
same,"Change of air-sac, right: - (chickens)",[4],5
same,"Isolation, L (left air-sac)",[4],0
same,"Isolation, R (right air-sac)",[4],1
same,"Isolation, T (trachea)",[4],0
same,Mycoplasma Isolated Chickens,[4],1
same,Index of Isolation,"200 mg/kg × once oral, 20 mg/ml sol. a, inoculum 3.1 × 10^5, range 0-6.0",0.2
same,Index of Disease,"200 mg/kg × once oral, 20 mg/ml sol. a, inoculum 3.1 × 10^5, range 0-9.0",0
same,"Change of air-sac, left: + (chickens)",[5],0
same,"Change of air-sac, left: ++ (chickens)",[5],0
same,"Change of air-sac, left: +++ (chickens)",[5],0
same,"Change of air-sac, left: - (chickens)",[5],5
same,"Change of air-sac, right: + (chickens)",[5],0
same,"Change of air-sac, right: ++ (chickens)",[5],0
same,"Change of air-sac, right: +++ (chickens)",[5],0
same,"Change of air-sac, right: - (chickens)",[5],5
same,"Isolation, L (left air-sac)",[5],0
same,"Isolation, R (right air-sac)",[5],0
same,"Isolation, T (trachea)",[5],0
same,Mycoplasma Isolated Chickens,[5],0
same,Index of Isolation,"200 mg/kg × once oral, 20 mg/ml sol. c, inoculum 3.1 × 10^5, range 0-6.0",0
same,Index of Disease,"200 mg/kg × once oral, 20 mg/ml sol. c, inoculum 3.1 × 10^5, range 0-9.0",0
